Assay results reported in patent US20260216166A1, “COMPOUND FOR TREATMENT OF ERECTILE DYSFUNCTION” (Initiator Pharma A/S, priority 2023, published 2026).

Assay: Plasma concentrations after repeat single oral doses in male subjects with ED
Type: in vivo, human
Conditions: 5 mg and 10 mg; Week 1 and Week 4
Method: On Day-7, and at the Week 1 (Day 1), Week 2, Week 3, Week 4 and Follow-up visits, all groups were asked to complete the IIEF-15 questionnaire. Group 2 was asked to complete a Visual Stimulation Assessment using a RigiScan Plus Monitor on Day-7, Week 1 (Day 1) and Week 4. Group 2 was also required to provide blood samples for pharmacokinetic assessment on Week 1 (Day 1) and Week 4. Group 3 was required to provide semen samples on Day-7 and Week 4.
Efficacy was assessed through the International Index of Erectile Function (IIEF)-15 questionnaire. The change from baseline in responses to questions of the IIEF-15 questionnaire, including questions regarding erectile function, orgasmic function, sexual desire, intercourse satisfaction and overall satisfaction domain scores, was determined at different time points of the study. RigiScan assessments during the stimulus assessment, and sperm count and motility by semen sample collection was used for efficacy evaluation. Safety was assessed through AE reporting, 12-lead ECG, vital signs, physical examinations and clinical laboratory evaluations. Pharmacokinetics was assessed by blood sampling.

COc1cc2ccc(OC3CC4CCC(C3)N4)cc2oc1=O (stereo not shown) [IP2015, 7-[(8-azabicyclo[3.2.1]octan-3-yl)oxy]-3-methoxy-chromen-2-one]
relation of plasma concentrations to dose: linear relation of plasma concentrations to dose
